Test systems include MOLT-4; MCF7; ACHN; UO-31; Hs-578T; MDA-N; CCRF-CEM; SK-OV-3; HT-29; BT-549; A498; NCI-H226; OVCAR-8; NCI-H460; A549; KM12; U-251; MDA-MB-231; HCC 2998; M14.
Assay in all cases: inhibition of tumour cell growth, NCI panel, 48 h

Each structure is given as a SMILES string.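 Growth conditions: 96-well plates. Treatment: test compound, 48 hours, 5 concentrations. Analysis: linear interpolation between bracketing concentrations; unreached endpoints set to highest concentration. GI50: concentration for 50% inhibition of growth.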 Active and inactive are the calls of the source. Cut-off read from the data, not from the text of the source: active = GI50 up to about 1.1 µM and inactive = higher. Some results are limits rather than exact numbers.

Turning to `Cc1ccc(S(=O)ON2CCC(C(=O)O)(c3ccccc3)CC2)cc1` (stereo not given), the GI50 with MOLT-4, in the assay on MCF7, in the assay on ACHN, with UO-31, in the assay on Hs-578T and with MDA-N was > 100 µM (inactive) in each case. For the same compound, the GI50 in the assay with CCRF-CEM, in the assay on SK-OV-3, in the assay on HT-29, in the assay on BT-549, in the assay with A498 and with NCI-H226 was > 100 µM (inactive) each time. Also, the GI50 in the assay with OVCAR-8, in the assay on NCI-H460, with A549, with KM12, in the assay on U-251 and in the assay on MDA-MB-231 was > 100 µM (inactive) each time. Further, the GI50 with HCC 2998 and in the assay with M14 was > 100 µM (inactive) each time.

On to `C/C(=N/NC(=S)N1CCCCCC1)c1ccccc1O`, for which the GI50 is 2.26 µM (inactive) in the assay with MOLT-4; 3.31 µM (inactive) in the assay with MCF7; 2.65 µM (inactive) in the assay on ACHN; 2.62 µM (inactive) in the assay with UO-31; > 100 µM (inactive) in the assay with Hs-578T; 13.6 µM (inactive) with MDA-N. The GI50 in the assay with CCRF-CEM is 0.792 µM (active); with SK-OV-3, 12.7 µM (inactive); with HT-29, 7.73 µM (inactive); in the assay on BT-549 it was 8.97 µM (inactive); in the assay with A498, 23.8 µM (inactive); in the assay on NCI-H226, > 22 µM (inactive). The GI50 with OVCAR-8 is 2.81 µM (inactive); in the assay with NCI-H460, 0.65 µM (active); in the assay on A549, 6.05 µM (inactive); with KM12 it was 3.67 µM (inactive); with U-251 it was 1.87 µM (inactive); in the assay with MDA-MB-231, 29.9 µM (inactive). The GI50 with HCC 2998 is 7.4 µM (inactive); in the assay with M14 it was 1.49 µM (inactive).

Regarding `CCCCN(C)C(=O)C1=C(C)NC(C)=C(C(=O)N(C)CCCC)C1`, the GI50 is > 100 µM (inactive) in the assay with MOLT-4; > 100 µM (inactive) with MCF7; > 100 µM (inactive) in the assay with ACHN; 61.1 µM (inactive) in the assay with UO-31; > 100 µM (inactive) in the assay with Hs-578T; > 100 µM (inactive) with MDA-N. The GI50 in the assay with CCRF-CEM is 66.2 µM (inactive); with SK-OV-3 it was > 100 µM (inactive); in the assay with HT-29, > 100 µM (inactive); in the assay with BT-549, > 100 µM (inactive); in the assay with A498 it was > 100 µM (inactive); in the assay on NCI-H226, > 100 µM (inactive). The GI50 with OVCAR-8, in the assay on NCI-H460, in the assay on A549, with KM12, with U-251 and with MDA-MB-231 was > 100 µM (inactive) throughout. Further, the GI50 with HCC 2998 and with M14 was > 100 µM (inactive) throughout.

Regarding `O=C1C=CC(=O)c2c1ccc1c3ccccc3n(CCCCCn3c4ccccc4c4ccc5c(c43)C(=O)C=CC5=O)c21`, the GI50 in the assay on MOLT-4 was 1.52 µM (inactive); in the assay with MCF7, 19.7 µM (inactive); in the assay on ACHN it was 15.3 µM (inactive); in the assay on UO-31, 7.87 µM (inactive); in the assay with Hs-578T it was 21.2 µM (inactive); with MDA-N, 20.3 µM (inactive). Also, the GI50 in the assay with CCRF-CEM is 0.454 µM (active); with SK-OV-3, > 100 µM (inactive); with HT-29, 32 µM (inactive); in the assay on BT-549, 32.4 µM (inactive); in the assay with A498, 54.5 µM (inactive); in the assay on NCI-H226, > 100 µM (inactive). In addition, the GI50 was 17.7 µM (inactive) in the assay with OVCAR-8; > 78 µM (inactive) in the assay with NCI-H460; > 100 µM (inactive) in the assay with A549; > 100 µM (inactive) in the assay with KM12; 20 µM (inactive) in the assay on U-251; 21.2 µM (inactive) in the assay with MDA-MB-231. In addition, the GI50 was 33 µM (inactive) in the assay on HCC 2998 and 20.1 µM (inactive) in the assay on M14.

Regarding `CC(C)CC1C(=O)OC(C)(C)OC1=O`, the GI50 in the assay on MOLT-4, in the assay on MCF7, with ACHN, in the assay with UO-31, with Hs-578T and in the assay with MDA-N was > 100 µM (inactive) each time. For the same compound, the GI50 in the assay on CCRF-CEM, with SK-OV-3, with HT-29, in the assay with BT-549, in the assay on A498 and in the assay with NCI-H226 was > 100 µM (inactive) each time. Moreover, the GI50 in the assay on OVCAR-8, with NCI-H460, with A549, in the assay with KM12, with U-251 and with MDA-MB-231 was > 100 µM (inactive) in each case. Moreover, the GI50 with HCC 2998 and in the assay on M14 was > 100 µM (inactive) in each case.

Regarding `C=C1C(=O)OC2CC1C(O)C/C(C)=C/CC/C(C)=C/C(O)CC2C` (stereo not given), the GI50 in the assay with MOLT-4 was 0.625 µM (active); in the assay on MCF7 it was 2.06 µM (inactive); in the assay on ACHN it was 1.65 µM (inactive); in the assay on UO-31, 2.33 µM (inactive); with Hs-578T it was 3.03 µM (inactive); in the assay on MDA-N, 1.19 µM (inactive). In addition, the GI50 with CCRF-CEM was 0.203 µM (active); with SK-OV-3 it was 12.7 µM (inactive); in the assay with HT-29, 1.78 µM (inactive); in the assay on BT-549, 2.31 µM (inactive); in the assay with A498, 3.24 µM (inactive); in the assay with NCI-H226, 9.33 µM (inactive). Moreover, the GI50 is 1.89 µM (inactive) in the assay with OVCAR-8; 2.88 µM (inactive) in the assay with NCI-H460; 12.4 µM (inactive) with A549; 5.21 µM (inactive) in the assay on KM12; 4.68 µM (inactive) with U-251; 3.52 µM (inactive) in the assay with MDA-MB-231. Besides, the GI50 in the assay on HCC 2998 is 1.83 µM (inactive); in the assay with M14 it was 2.51 µM (inactive).

For the compound `CCC1(C)C=Cc2c(cc(O)c3c(=O)c4ccccc4n(C)c23)O1` (stereo not given), the GI50 in the assay on MOLT-4, in the assay with MCF7, with ACHN, in the assay with UO-31, in the assay with Hs-578T and with MDA-N was > 10 µM (inactive) each time. In addition, the GI50 in the assay with CCRF-CEM, in the assay with SK-OV-3, with HT-29, in the assay with BT-549, with A498 and in the assay with NCI-H226 was > 10 µM (inactive) throughout. Also, the GI50 in the assay on OVCAR-8, in the assay on NCI-H460, with A549, in the assay with KM12, with U-251 and in the assay with MDA-MB-231 was > 10 µM (inactive) in each case. Also, the GI50 in the assay on HCC 2998 and in the assay with M14 was > 10 µM (inactive) each time.

Consider `Cc1cccc(C)c1/N=N/c1ccc(O)c(CN(C)C)c1`, for which the GI50 is 34.8 µM (inactive) in the assay on MOLT-4; 89.1 µM (inactive) in the assay on MCF7; 36.2 µM (inactive) with ACHN; 15.6 µM (inactive) in the assay with UO-31; 30.8 µM (inactive) in the assay on Hs-578T; 50.8 µM (inactive) in the assay on MDA-N. Moreover, the GI50 with CCRF-CEM was 34.8 µM (inactive); in the assay with SK-OV-3, > 100 µM (inactive); in the assay on HT-29, 22.7 µM (inactive); in the assay on BT-549 it was 56.5 µM (inactive); in the assay on A498, 35.6 µM (inactive); in the assay with NCI-H226, 87.9 µM (inactive). Further, the GI50 is > 100 µM (inactive) in the assay on OVCAR-8; 26 µM (inactive) in the assay with NCI-H460; 65.9 µM (inactive) in the assay on A549; > 100 µM (inactive) in the assay with KM12; > 100 µM (inactive) with U-251; > 100 µM (inactive) in the assay with MDA-MB-231. Also, the GI50 with HCC 2998 was 19.9 µM (inactive); in the assay with M14 it was 24.7 µM (inactive).

Regarding `O=P(Oc1ccc(Cl)cc1)(Oc1ccc(Cl)cc1)N1CC1`, the GI50 in the assay with MOLT-4, in the assay with MCF7, in the assay with ACHN, in the assay with UO-31, with Hs-578T and with MDA-N was > 10 µM (inactive) each time. Also, the GI50 was 0.174 µM (active) in the assay with CCRF-CEM; > 10 µM (inactive) in the assay with SK-OV-3; > 10 µM (inactive) in the assay with HT-29; > 10 µM (inactive) with BT-549; > 10 µM (inactive) with A498; > 10 µM (inactive) in the assay on NCI-H226. In addition, the GI50 in the assay on OVCAR-8, in the assay on NCI-H460, in the assay with A549, in the assay with KM12, with U-251 and in the assay on MDA-MB-231 was > 10 µM (inactive) in each case. The GI50 in the assay on HCC 2998 and in the assay on M14 was > 10 µM (inactive) in each case.

Turning to `O=C1CC(c2ccccc2Cl)C2(C(=O)NC(=O)NC2=O)C(c2ccccc2Cl)C1` (stereo not given), the GI50 in the assay with MOLT-4 is > 100 µM (inactive); in the assay on MCF7, 54.1 µM (inactive); in the assay with ACHN, > 100 µM (inactive); in the assay with UO-31 it was > 100 µM (inactive); with Hs-578T, 41.4 µM (inactive); with MDA-N it was 78 µM (inactive). The GI50 in the assay with CCRF-CEM is > 100 µM (inactive); with SK-OV-3, 0.356 µM (active); with HT-29 it was > 100 µM (inactive); with BT-549 it was > 100 µM (inactive); in the assay on A498, > 100 µM (inactive); with NCI-H226, 65.8 µM (inactive). The GI50 was > 100 µM (inactive) in the assay on OVCAR-8; 98.4 µM (inactive) with NCI-H460; 85.3 µM (inactive) with A549; > 100 µM (inactive) with KM12; > 100 µM (inactive) with U-251; > 100 µM (inactive) in the assay with MDA-MB-231. Also, the GI50 was 49.2 µM (inactive) in the assay with HCC 2998 and > 100 µM (inactive) in the assay with M14.
